Experimental data: US10927106B2, “Benzothiazole derivatives as DYRK1 inhibitors” (PHARMASUM THERAPEUTICS AS, priority 2017, dated 2021)

How the values were obtained:
[1] = system: tau/MAPT phosphorylation in control neurons; assay: Tau/MAPT phosphorylation in control neurons, Western blotting; type: cell-based, human; settings: treated for 10 days, compared to DMSO treated controls
Description: (§1) Overexpression of DYRK1A in DS is thought to account for increased tau phosphorylation by GSK3β and the increase in DYRK1A positive neurofibrillary tangles (NFTs) in the brains of people with DS and AD. Therefore therapeutic inhibition of DYRK1A activity in DS and AD may delay the progression of neurodegeneration in DS and AD. The following experiment on reduction of tau phosphorylation by inhibition of DYRK1A by inhibitor 4-93 was performed as described in the literature (Shi, Y. et al. A human stem cell model of early Alzheimer's disease pathology in Down syndrome. Sci. Transl. Med. 4, 124ra29 (2012)).
(§2) Neuronal cultures at day 40 were treated with DYRK1A inhibitors and control compounds for 10 days. Total protein was extracted and total tau and phosphorylated tau/MAPT was quantified by Western blotting using antibodies to total tau and a number of phospho-tau epitopes.

[2] = system: tau/MAPT phosphorylation in TS21 neurons; assay: Tau/MAPT phosphorylation in TS21 neuronal cultures, Western blotting; type: cell-based, human; settings: treated for 10 days
Description: as §1, §2

DYRK1A = DYRK1A (Homo sapiens (Human), UniProt Q13627); assay: IC50 determination, methodology similar to Example A (Example B); type: biochemical; settings: against DYRK1A; Table 8
Description: This method is sensitive, accurate and provides a direct measure of activity.

[3] = TS21 neurons, normalised to β-actin, vs DMSO treated controls

Compound | tau/MAPT phosphorylation at Ser 396 [1] | tau/MAPT phosphorylation at Ser 404 [1] | total tau protein levels ([2]; TS21 neuronal cultures) | tau phosphorylation at Ser 396 [2, 3] | tau phosphorylation at Ser 404 [2, 3] | IC50 (DYRK1A)
C[C@H](NC(=O)Cc1cc(F)cc(F)c1)C(=O)N[C@H](C(=O)OC(C)(C)C)c1ccccc1 [DAPT, reference compound] | increased | increased | increased | increased | increased | –
COc1ccc(Nc2ccncc2-c2nc3cc(OC)ccc3s2)c(F)c1 [PST-131] | – | – | – | – | – | 351 nM
